Reference: PubChem BioAssay (NCI)
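Each compound was tested at five concentrations against cells in 96-well plates for 48 hours. GI50: concentration for 50% inhibition of growth. The concentration for full growth arrest is given as TGI.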

Key:
Assay in all cases: NCI tumour cell line growth inhibition, 48 h
[1] = test system: KM12 colon
[2] = test system: SNB-75 CNS
[3] = test system: UACC-62 melanoma
[4] = test system: RPMI-8226 leukemia
[5] = test system: SK-MEL-28 melanoma
[6] = test system: HOP-18 NSCLC
[7] = test system: DMS 114 small cell lung
[8] = test system: DU-145 prostate
[9] = test system: SR leukemia
[10] = test system: XF 498 CNS
[11] = test system: DLD-1 colon
[12] = test system: P388 leukemia
[13] = test system: DMS 273 small cell lung

| SMILES | GI50 [1] | TGI [1] | GI50 [2] | TGI [2] | GI50 [3] | TGI [3] | GI50 [4] | TGI [4] | GI50 [5] | TGI [5] | TGI [6] | TGI [7] | TGI [8] | TGI [9] | TGI [10] | TGI [11] | TGI [12] | TGI [13] | GI50 [8] | GI50 [9] |
| --- | --- | --- | --- | --- | --- | --- | --- | --- | --- | --- | --- | --- | --- | --- | --- | --- | --- | --- | --- | --- |
| Cc1ccc2[nH]cc(-c3nc(-c4c[nH]c5ncccc45)cs3)c2c1 | > 100 µM | > 100 µM | > 100 µM | > 100 µM | > 100 µM | > 100 µM | > 100 µM | > 100 µM | > 100 µM | > 100 µM | – | – | – | – | – | – | – | – | – | – |
| CCCC/C=C1\CCC(CN2CCCCC2)C1=O (centres undefined) | – | > 33.8 µM | – | > 100 µM | – | 24.8 µM | – | – | – | 36.7 µM | 16.8 µM | 16.1 µM | > 100 µM | > 24.7 µM | 6.58 µM | 3.25 µM | – | – | – | – |
| COc1ccc2[nH]c(C(=O)N3CC(CCl)c4ccc(N)cc43)cc2c1 (centres undefined) | – | 0.406 µM | – | 0.475 µM | – | 0.376 µM | – | > 35.4 µM | – | > 31.6 µM | – | – | – | > 100 µM | – | – | – | – | – | – |
| CC(=O)OC(Cc1cc(C=C(C(F)(F)F)C(F)(F)F)cc(C)n1)(C(F)(F)F)C(F)(F)F | – | 2.98 µM | – | 7.02 µM | – | 3.54 µM | – | 4.56 µM | – | 2.85 µM | – | – | 6.84 µM | – | – | – | – | – | – | – |
| O=C1C(Br)=CC2([N+](=O)[O-])CCNc3c(O)c4c5c(c3C2=C1Br)=NCCC=5C=N4 (centres undefined) | – | 14.8 µM | – | 20.5 µM | – | 3.14 µM | – | 0.761 µM | – | 9.95 µM | 27.5 µM | 0.545 µM | – | – | 5.48 µM | 1.49 µM | 1.14 µM | 6.92 µM | – | – |
| COc1ccc2c3c1OC1CC(O)C=CC31CCN(C)C2 (centres undefined) | – | > 150 µM | – | > 150 µM | – | > 150 µM | – | > 150 µM | – | > 150 µM | > 150 µM | > 150 µM | – | – | > 150 µM | > 54.1 µM | > 150 µM | > 150 µM | – | – |
| COC(=O)/C=C\Sc1ccn(/C=C\C(=O)OC)c(=S)n1 | – | 42.8 µM | – | 43.1 µM | – | – | – | > 100 µM | – | > 100 µM | – | – | > 100 µM | 38.8 µM | – | – | – | – | – | – |
| CN(C)c1ccc(N2C(=S)SC(=Nc3ccccc3)C2=Nc2ccccc2)cc1 | – | > 100 µM | – | > 100 µM | – | > 100 µM | – | > 100 µM | – | > 100 µM | – | – | > 100 µM | > 100 µM | – | – | – | – | – | – |
| CC1(C)OP23(NC(=O)OC2(C(F)(F)F)c2ccccc2O3)OC1(C)C (centres undefined) | – | > 100 µM | – | > 100 µM | – | > 100 µM | – | – | – | > 100 µM | > 100 µM | > 100 µM | – | – | > 100 µM | > 100 µM | – | > 100 µM | – | – |
| CCOC(=O)/C(O)=C1\C(=O)N(C)C(=O)C1c1ccc(OC)c(OC)c1 (centres undefined) | – | > 100 µM | – | > 100 µM | – | > 100 µM | – | > 100 µM | – | > 100 µM | > 100 µM | > 100 µM | – | – | > 100 µM | > 100 µM | > 100 µM | > 100 µM | – | – |
| CC(=O)O[C@H]1CC[C@@]2(C)C(=CC[C@@H]3[C@@H]2CC[C@]2(C)C(c4cccnc4)=CC[C@@H]32)C1 | 3.73 µM | > 100 µM | 2.6 µM | 15.6 µM | – | – | 2.81 µM | 8.07 µM | 3.53 µM | > 100 µM | – | – | > 100 µM | 8.35 µM | – | – | – | – | 22.3 µM | 3.01 µM |
